Converted amounts (≈) assume the structure as drawn.
The compounds below were run on S. aureus (assay: Minimum inhibitory concentrations (MICs) for S. aureus of exemplary compounds (Table 2)). Details: Staphylococcus aureus, minimum inhibitory concentrations for S. aureus; read-out: MICs.
Format: cell-based
Text: Exemplary compounds in accordance with the invention are listed in Table 2 with their minimum inhibitory concentrations (MICs) (μg/mL) for S. aureus:
Furthermore, the antibiotic compounds can be assayed for anti-proliferative or anti-infective properties on a cellular level. For example, where the target organism is a microorganism, the activity of compounds of interest can be assayed by growing the microorganisms of interest in media either containing or lacking the compound. Growth inhibition can be indicative that the molecule could be acting as a protein synthesis inhibitor. […] For this purpose, a panel of bacterial strains can be assembled to include a variety of target pathogenic species, some containing resistance mechanisms that have been characterized. Use of such a panel of organisms permits the determination of structure-activity relationships not only in regards to potency and spectrum, but also with a view to obviating resistance mechanisms. The assays can be performed in microtiter trays according to conventional methodologies as published by The National Committee for Clinical Laboratory Standards (NCCLS) guidelines (NCCLS. M7-A5-Methods for Dilution Antimicrobial Susceptibility Tests for Bacteria That Grow Aerobically; Approved Standard-Fifth Edition. NCCLS Document M100-S12/M7 (ISBN 1-56238-394-9)).

| MIC [µg/mL] | Structure (SMILES) |
| --- | --- |
| 16 (≈ 34.4 µM) | CCc1ncc(CNCc2ccc(-c3ccc(N4C[C@H](CNC(C)=O)OC4=O)cc3F)cc2)[nH]1 [Compound 4124, N-[3-(4′-{[(2-Ethyl-3H-imidazol-4-ylmethyl)-amino]-methyl}-2-fluoro-biphenyl-4-yl)-2-oxo-oxazolidin-5-(S)-ylmethyl]-acetamide] |
| 1 (≈ 2.21 µM) | CC(=O)NC[C@H]1CN(c2ccc(-c3ccc(SCc4ccncc4)cc3)c(F)c2)C(=O)O1 [Compound 3001, N-{3-[2-Fluoro-4′-(pyridin-4-ylmethylsulfanyl)-biphenyl-4-yl]-2-oxo-oxazolidin-5-(S)-ylmethyl}-acetamide] |
| 2 (≈ 4 µM) | CSc1ccc(CNCc2ccc(-c3ccc(N4C[C@H](CNC(C)=O)OC4=O)cc3F)cc2)s1 [Compound 4167, N-[3-(2-Fluoro-4′-{[(5-methylsulfanyl-thiophen-2-ylmethyl)-amino]-methyl}-biphenyl-4-yl)-2-oxo-oxazolidin-5-(S)-ylmethyl]-acetamide] |
| 0.5 (≈ 1.1 µM) | CC(=O)NC[C@H]1CN(c2ccc(-c3ccc(C(=O)NCc4ncon4)cc3)c(F)c2)C(=O)O1 [Compound 4224, 4′-[5-(S)-(Acetylamino-methyl)-2-oxo-oxazolidin-3-yl]-2′-fluoro-biphenyl-4-carboxylic acid ([1,2,4]oxadiazol-3-ylmethyl)-amide] |
| 1 (≈ 2.16 µM) | CC(=O)NC[C@H]1CN(c2ccc(-c3ccc(C(=O)NCc4ccccn4)nc3)c(F)c2)C(=O)O1 [Compound 4187, 5-{4-[5-(S)-(Acetylamino-methyl)-2-oxo-oxazolidin-3-yl]-2-fluoro-phenyl}-pyridine-2-carboxylic acid (pyridin-2-ylmethyl)-amide] |
| 2 (≈ 4.01 µM) | CC(=O)NC[C@H]1CN(c2ccc(-c3ccc(S(=O)(=O)NCc4ccncc4)cc3)c(F)c2)C(=O)O1 [Compound 3005, N-(3-{2-Fluoro-4′-[(pyridin-4-ylmethyl)-sulfamoyl]-biphenyl-4-yl}-2-oxo-oxazolidin-5-(S)-ylmethyl)-acetamide] |
| 1 (≈ 2.13 µM) | CC(=O)NC[C@H]1CN(c2ccc(-c3ccc(C(=O)NCc4nccs4)cc3)c(F)c2)C(=O)O1 [Compound 4143, 4′-[5-(S)-(Acetylamino-methyl)-2-oxo-oxazolidin-3-yl]-2′-fluoro-biphenyl-4-carboxylic acid (thiazol-2-ylmethyl)-amide] |
| 16 (≈ 32.4 µM) | CC(=O)NC[C@H]1CN(c2ccc(-c3ccc(NC(=O)NCCCn4ccnc4)cc3)c(F)c2)C(=O)O1 [Compound 6001, N-(3-{2-Fluoro-4′-[3-(3-imidazol-1-yl-propyl)-ureido]-biphenyl-4-yl}-2-oxo-oxazolidin-5-(S)-ylmethyl)-acetamide] |
| 4 (≈ 8.86 µM) | CC(=O)NC[C@H]1CN(c2ccc(-c3ccc(CNCc4c[nH]c(C)n4)cc3)c(F)c2)C(=O)O1 [Compound 4165, N-[3-(2-Fluoro-4′-{[(2-methyl-1H-imidazol-4-ylmethyl)-amino]-methyl}-biphenyl-4-yl)-2-oxo-oxazolidin-5-(S)-ylmethyl]-acetamide] |
| 4 (≈ 8.55 µM) | CC(=O)NC[C@H]1CN(c2ccc(-c3ccc(CNCc4sccc4C)cc3)c(F)c2)C(=O)O1 [Compound 4099, N-[3-(2-Fluoro-4′-{[(3-methyl-thiophen-2-ylmethyl)-amino]-methyl}-biphenyl-4-yl)-2-oxo-oxazolidin-5-(S)-ylmethyl]-acetamide] |
| 1 (≈ 2.05 µM) | CC(=O)NC[C@H]1CN(c2ccc(-c3ccc(C[S+]([O-])c4nc(C)cs4)cc3)c(F)c2)C(=O)O1 (stereo partly drawn) [Compound 2037, N-{3-[2-Fluoro-4′-(4-methyl-thiazole-2-sulfinylmethyl)-biphenyl-4-yl]-2-oxo-oxazolidin-5-(S)-ylmethyl}-acetamide] |
| 8 (≈ 16.9 µM) | CC(=O)NC[C@H]1CN(c2ccc(-c3ccc(CS(=O)(=O)c4cnn[nH]4)cc3)c(F)c2)C(=O)O1 [Compound 2025, N-{3-[2-Fluoro-4′-(3H-[1,2,3]triazole-4-sulfonylmethyl)-biphenyl-4-yl]-2-oxo-oxazolidin-5-(S)-ylmethyl}-acetamide] |
| 1 (≈ 2.02 µM) | CC(=O)NC[C@H]1CN(c2ccc(-c3ccc(Cn4cnc5c(Cl)ncnc54)cc3)c(F)c2)C(=O)O1 [Compound 1100, N-{3-[4′-(6-Chloro-purin-9-ylmethyl)-2-fluoro-biphenyl-4-yl]-2-oxo-oxazolidin-5-(S)-ylmethyl}-acetamide] |
| 0.25 (≈ 0.585 µM) | CC(=O)NC[C@H]1CN(c2ccc(-c3ccc(Cn4ccnn4)c(F)c3)c(F)c2)C(=O)O1 [Compound 1009, N-[3-(2,3′-Difluoro-4′-[1,2,3]triazol-1-ylmethyl-biphenyl-4-yl)-2-oxo-oxazolidin-5-(S)-ylmethyl]-acetamide] |
| 2 (≈ 4.13 µM) | CC(=O)NC[C@H]1CN(c2ccc(-c3ccc(CNCC(CF)n4ccnn4)cc3)c(F)c2)C(=O)O1 (stereo partly drawn) [Compound 4274, N-(3-{2-Fluoro-4′-[(3-fluoro-2-[1,2,3]triazol-1-yl-propylamino)-methyl]-biphenyl-4-yl}-2-oxo-oxazolidin-5-(S)-ylmethyl)-acetamide] |

Continued, compound first:

| Structure (SMILES) | MIC [µg/mL] |
| --- | --- |
| CC(=O)NC[C@H]1CN(c2ccc(-c3ccc(CNCc4cnn[nH]4)cc3)c(F)c2)C(=O)O1 [Compound 4267, N-[3-(2-Fluoro-4′-{[(3H-[1,2,3]triazol-4-ylmethyl)-amino]-methyl}-biphenyl-4-yl)-2-oxo-oxazolidin-5-(S)-ylmethyl]-acetamide] | 0.25 (≈ 0.57 µM) |
| CC(=O)NC[C@H]1CN(c2ccc(-c3ccc(CNCc4ccc([N+](=O)[O-])o4)cc3)c(F)c2)C(=O)O1 [Compound 4069, N-[3-(2-Fluoro-4′-{[(5-nitro-furan-2-ylmethyl)-amino]-methyl}-biphenyl-4-yl)-2-oxo-oxazolidin-5-(S)-ylmethyl]-acetamide] | 1 (≈ 2.07 µM) |
| CCc1ccc(CNCc2ccc(-c3ccc(N4C[C@H](CNC(C)=O)OC4=O)cc3F)cc2)o1 [Compound 4161, N-[3-(4′-{[(5-Ethyl-furan-2-ylmethyl)-amino]-methyl}-2-fluoro-biphenyl-4-yl)-2-oxo-oxazolidin-5-(S)-ylmethyl]-acetamide] | 2 (≈ 4.3 µM) |
| CC(=O)NC[C@H]1CN(c2ccc(-c3ccc(S(=O)(=O)NCCc4ccccn4)cc3)c(F)c2)C(=O)O1 [Compound 3007, N-{3-[2-Fluoro-4′-(2-pyridin-2-yl-ethylsulfamoyl)-biphenyl-4-yl]-2-oxo-oxazolidin-5-(S)-ylmethyl}-acetamide] | 1 (≈ 1.95 µM) |
| CC(=O)NC[C@H]1CN(c2ccc(-c3ccc(Cn4cnc5c(NCCCO)ncnc54)cc3)c(F)c2)C(=O)O1 [Compound 1107, N-(3-{2-Fluoro-4′-[6-(3-hydroxy-propylamino)-purin-9-ylmethyl]-biphenyl-4-yl}-2-oxo-oxazolidin-5-(S)-ylmethyl)-acetamide] | 2 (≈ 3.75 µM) |
| CC(=O)NC[C@H]1CN(c2ccc(-c3ccc(CNCCCN4CCCC4=O)cc3)c(F)c2)C(=O)O1 [Compound 4156, N-[3-(2-Fluoro-4′-{[3-(2-oxo-pyrrolidin-1-yl)-propylamino]-methyl}-biphenyl-4-yl)-2-oxo-oxazolidin-5-(S)-ylmethyl]-acetamide] | 16 (≈ 33.2 µM) |
| CC(=O)NC[C@H]1CN(c2ccc(-c3ccc(CNS(=O)(=O)CCN4C(=O)c5ccccc5C4=O)cc3)c(F)c2)C(=O)O1 [Compound 4136, N-[3-(4′-{[2-(1,3-Dioxo-1,3-dihydro-isoindol-2-yl)-ethanesulfonylamino]-methyl}-2-fluoro-biphenyl-4-yl)-2-oxo-oxazolidin-5-(S)-ylmethyl]-acetamide] | 8 (≈ 13.5 µM) |
| COc1cc(CNCc2ccncc2)ccc1-c1ccc(N2C[C@H](CNC(C)=O)OC2=O)cc1F [Compound 4027, N-[3-(2-Fluoro-2′-methoxy-4′-{[(pyridin-4-ylmethyl)-amino]-methyl}-biphenyl-4-yl)-2-oxo-oxazolidin-5-(S)-ylmethyl]-acetamide] | 8 (≈ 16.7 µM) |
| COc1ccc(CN(C)Cc2ccc(-c3ccc(N4C[C@H](CNC(C)=O)OC4=O)cc3F)cc2)cn1 [Compound 4055, N-[3-(2-Fluoro-4′-{[(6-methoxy-pyridin-3-ylmethyl)-methyl-amino]-methyl}-biphenyl-4-yl)-2-oxo-oxazolidin-5-(S)-ylmethyl]-acetamide] | 2 (≈ 4.06 µM) |
| CC(=O)NC[C@H]1CN(c2ccc(-c3ccc(CNCc4nn(-c5ccccc5)nc4C)cc3)c(F)c2)C(=O)O1 [Compound 4146, N-[3-(2-Fluoro-4′-{[(5-methyl-2-phenyl-2H-[1,2,3]triazol-4-ylmethyl)-amino]-methyl}-biphenyl-4-yl)-2-oxo-oxazolidin-5-(S)-ylmethyl]-acetamide] | 4 (≈ 7.57 µM) |
| CC(=O)NC[C@H]1CN(c2ccc(-c3ccc(CNC(=O)/C=C/c4cncn(C)c4=O)cc3)c(F)c2)C(=O)O1 [Compound 4007, N-{4′-[5-(S)-(Acetylamino-methyl)-2-oxo-oxazolidin-3-yl]-2′-fluoro-biphenyl-4-ylmethyl}-3-(1-methyl-6-oxo-1,6-dihydro-pyrimidin-5-yl)-acrylamide] | 1 (≈ 1.92 µM) |
| CC(=O)NC[C@H]1CN(c2ccc(-c3ccc(CNCCCc4cn(Cc5ccccc5)nn4)cc3)c(F)c2)C(=O)O1 [Compound 4256, N-[3-(4′-{[3-(1-Benzyl-1H-[1,2,3]triazol-4-yl)-propylamino]-methyl}-2-fluoro-biphenyl-4-yl)-2-oxo-oxazolidin-5-(S)-ylmethyl]-acetamide] | 4 (≈ 7.19 µM) |

Same assay, conditions: Staphylococcus aureus, read-out: MICs

| Structure (SMILES) | MIC [µg/mL] |
| --- | --- |
| CC(=O)NC[C@H]1CN(c2ccc(-c3ccc(CNCc4cncnc4)cc3)c(F)c2)C(=O)O1 [Compound 4203, N-[3-(2-Fluoro-4′-{[(pyrimidin-5-ylmethyl)-amino]-methyl}-biphenyl-4-yl)-2-oxo-oxazolidin-5-(S)-ylmethyl]-acetamide] | 1 (≈ 2.22 µM) |

From patent US10471046B2, “Method for treating, preventing, or reducing the risk of skin infection” (Melinta Subsidiary Corp., priority 2014, dated 2019)
